ChEMBL document CHEMBL6127035, “Novel pyridazinone derivatives bind to KSRP: Synthesis, anti-tumor biological evaluations and modelling insights” (Eur J Med Chem, 2024)
Activity calls are given as the source filed them. The calls are words filed in the database; no cut-off is given here.

Assays:
4T1 = experiment: Antiproliferative activity against mouse 4T1 cells assessed as reduction in cell viability incubated for 2 days by MTT assay; format: functional, cell-based; details: 4T1, 48 h
MDA-MB-231 [1] = experiment: Antiproliferative activity against human MDA-MB-231 cells assessed as reduction in cell viability incubated for 2 days by MTT assay; format: functional, cell-based; details: MDA-MB-231, 48 h
MCF7 [2] = experiment: Antiproliferative activity against human MCF7 cells assessed as reduction in cell viability incubated for 2 days by MTT assay; format: functional, cell-based; details: MCF7, 48 h
A549 = experiment: Antiproliferative activity against human A549 cells assessed as reduction in cell viability incubated for 2 days by MTT assay; format: functional, cell-based; details: A549, 48 h
KB = experiment: Antiproliferative activity against human KB cells assessed as reduction in cell viability incubated for 2 days by MTT assay; format: functional, cell-based; details: 48 h
[3] = Cytotoxicity against human L02 cells assessed as reduction in cell viability incubated for 2 days by MTT assay; format: toxicity, cell-based
NCI-H460 = experiment: Antiproliferative activity against human NCI-H460 cells assessed as reduction in cell viability incubated for 2 days by MTT assay; format: functional, cell-based; details: NCI-H460, 48 h
U-87 MG = experiment: Antiproliferative activity against human U-87 MG cells assessed as reduction in cell viability incubated for 2 days by MTT assay; format: functional, cell-based, U-87MG ATCC; details: 48 h
MIA PaCa-2 = experiment: Antiproliferative activity against human MIA PaCa-2 cells assessed as reduction in cell viability incubated for 2 days by MTT assay; format: functional, cell-based; details: MIA PaCa-2, 48 h
HCT-116 = experiment: Antiproliferative activity against human HCT-116 cells assessed as reduction in cell viability incubated for 2 days by MTT assay; format: functional, cell-based; details: HCT-116, 48 h
MCF7 [4] = experiment: Induction of DNA double-strand breaks in human MCF7 cells assessed as increase in gamma-H2AX foci formation at 10 uM incubated for 24 hrs by […] fluorescence microscopic analysis; format: functional, cell-based
MCF7 [5] = experiment: Induction of apoptosis in human MCF7 cells assessed as early apoptotic cells at 1.25 uM incubated for 48 hrs by Annexin V-FITC/PI staining based flow cytometric analysis (reference value: 5.12 %); format: functional
MCF7 [6] = experiment: Antiproliferation against human MCF7 cells assessed as effect on cell proliferation at 0.625 uM incubated for 2 days by MTT assay; format: functional, cell-based; details: time 2.0 day
MCF7 [7] = experiment: Induction of apoptosis in human MCF7 cells assessed as viable cells at 1.25 uM incubated for 48 hrs by Annexin V-FITC/PI staining based flow cytometric analysis (reference value: 89.3 %); format: functional; details: read-out: Activity
MCF7 [8] = experiment: Induction of ROS accumulation in human MCF7 cells assessed as increase in green fluorescence at 5 uM incubated for 24 hrs by DCFH-DA staining based automated microscopic immunofluorescence analysis; format: functional, cell-based
MDA-MB-231 [9] = experiment: Inhibition of cell migration in human MDA-MB-231 cells assessed as reduction in wound healing index measured after 72 hrs by scratch assay; format: functional, cell-based
MCF7 [10] = experiment: Induction of DNA double-strand breaks in human MCF7 cells assessed as enlarged nucleus at 10 uM incubated for 24 hrs by Hoechst 33342 staining based fluorescence microscopic analysis; format: functional, cell-based
MCF7 [11] = experiment: Induction of DNA double-strand breaks in human MCF7 cells assessed as increase in gamma-H2AX expression incubated for 24 hrs by Western blotting; format: functional, cell-based
MCF7 [12] = experiment: Induction of apoptosis in human MCF7 cells assessed as viable cells at 0.62 uM incubated for 48 hrs by Annexin V-FITC/PI staining based flow cytometric analysis (reference value: 89.3 %); format: functional; details: read-out: Activity
MCF7 [13] = experiment: Induction of apoptosis in human MCF7 cells assessed as early apoptotic cells at 2.5 uM incubated for 48 hrs by Annexin V-FITC/PI staining based flow cytometric analysis (reference value: 5.12 %); format: functional
MCF7 [14] = experiment: Induction of apoptosis in human MCF7 cells assessed as necrotic cells at 1.25 uM incubated for 48 hrs by Annexin V-FITC/PI staining based flow cytometric analysis (reference value: 1.22 %); format: functional
MCF7 [15] = experiment: Induction of apoptosis in human MCF7 cells assessed as late apoptotic cells at 2.5 uM incubated for 48 hrs by Annexin V-FITC/PI staining based flow cytometric analysis (reference value: 4.32 %); format: functional
[16] = Acute toxicity in BALB/c nu/nu mouse assessed as mortality rate at 30 mg/kg, ip administered for 7 days relative to control; format: organism-based; details: in vivo, time 7 day
MDA-MB-231 [17] = experiment: Inhibition of colony formation in human MDA-MB-231 cells assessed as reduction in colony count incubated for 2 weeks by crystal violet staining based analysis; format: functional, cell-based
Mitochondrial membrane = experiment: Induction of mitochondrial membrane potential loss in human MCF7 cells assessed as increase in green fluorescence at 10 uM incubated for 24 hrs by JC-1 staining based automated microscopic immunofluorescence analysis; format: cell membranes
MCF7 [18] = experiment: Induction of DNA double-strand breaks in human MCF7 cells assessed as appearance of nuclear fragments at 10 uM incubated for 24 hrs by Hoechst 33342 staining based fluorescence microscopic analysis; format: functional, cell-based
MCF7 [19] = experiment: Induction of morphological changes in human MCF7 cells assessed as cell membrane blebbing at 10 uM measured after 6 hrs by bright field microscopic; format: functional, cell-based
MCF7 [20] = experiment: Induction of apoptosis in human MCF7 cells assessed as late apoptotic cells at 1.25 uM incubated for 48 hrs by Annexin V-FITC/PI staining based flow cytometric analysis (reference value: 4.32 %); format: functional
MCF7 [21] = experiment: Inhibition of colony formation in human MCF7 cells assessed as reduction in colony count incubated for 2 weeks by crystal violet staining based analysis; format: functional, cell-based; details: dose 1.25-2.5 µM
MCF7 [22] = experiment: Inhibition of cell migration in human MCF7 cells assessed as reduction in wound healing index at 0.625 uM measured after 72 hrs by scratch assay; format: functional, cell-based
MCF7 [23] = experiment: Induction of apoptosis in human MCF7 cells assessed as necrotic cells at 2.5 uM incubated for 48 hrs by Annexin V-FITC/PI staining based flow cytometric analysis (reference value: 1.22 %); format: functional
MCF7 [24] = experiment: Induction of apoptosis in human MCF7 cells assessed as early apoptotic cells at 0.62 uM incubated for 48 hrs by Annexin V-FITC/PI staining based flow cytometric analysis (reference value: 5.12 %); format: functional
MCF7 [25] = experiment: Induction of apoptosis in human MCF7 cells assessed as viable cells at 2.5 uM incubated for 48 hrs by Annexin V-FITC/PI staining based flow cytometric analysis (reference value: 89.3 %); format: functional; details: read-out: Activity
MCF7 [26] = experiment: Induction of apoptosis in human MCF7 cells assessed as late apoptotic cells at 0.62 uM incubated for 48 hrs by Annexin V-FITC/PI staining based flow cytometric analysis (reference value: 4.32 %); format: functional
MCF7 [27] = experiment: Induction of apoptosis in human MCF7 cells assessed as necrotic cells at 0.62 uM incubated for 48 hrs by Annexin V-FITC/PI staining based flow cytometric analysis (reference value: 1.22 %); format: functional

With `CCN(C)S(=O)(=O)c1ccc(-n2ncc(Cl)c(Cl)c2=O)cc1` the IC50 (4T1) was 11.3 µM, the IC50 (MDA-MB-231 [1]) was greater than 50 µM and the IC50 (MCF7 [2]) was 4.1 µM.
`O=c1c(Cl)c(Cl)cnn1-c1ccc(S(=O)(=O)NCCCN2CCCC2)cc1` gave an IC50 (A549) of 1.8 µM, an IC50 (KB) of 0.58 µM and an IC50 at 2 days [3] of 8.15 µM. For the same compound, the IC50 (NCI-H460) was 1.94 µM, the IC50 (4T1) was 1.45 µM and the IC50 (U-87 MG) was 0.7 µM. It also gave an IC50 (MDA-MB-231 [1]) of 9.11 µM, an IC50 (MIA PaCa-2) of 0.87 µM and an IC50 (MCF7 [2]) of 4.43 µM. For the same compound, the IC50 (HCT-116) was 0.99 µM.
For `CN(C)CCN(C)S(=O)(=O)c1ccc(-n2ncc(Cl)c(Cl)c2=O)cc1`, the Activity (MCF7 [4]) was “Active”, the IC50 (A549) was 1 µM and the Activity (MCF7 [5]) was 9.53%. The Activity (MCF7 [6]) was “inactive”, the viability at 1.25 µM (MCF7 [7]) was 83.5% and the Activity (MCF7 [8]) was “Active”. For the same compound, the inhibition (MDA-MB-231 [9]) was “Active”, the IC50 (KB) was 0.22 µM and the Activity (MCF7 [10]) was “Active”. The IC50 at 2 days [3] was 4.97 µM, the Activity (MCF7 [11]) was “Dose-Dependent Effect” and the viability at 0.62 µM (MCF7 [12]) was 85.5%. It also gave an IC50 (NCI-H460) of 0.53 µM, an Activity (MCF7 [13]) of 17% and an Activity (MCF7 [14]) of 1.48%. It also gave an IC50 (4T1) of 1.15 µM, an IC50 (U-87 MG) of 0.36 µM and an Activity (MCF7 [15]) of 6.94%. The mortality at 168 h [16] was 100%, the inhibition (MDA-MB-231 [17]) was “Active” and the Activity (Mitochondrial membrane) was “Active”. The Activity (MCF7 [18]) was “Active”, the Activity (MCF7 [19]) was “Active” and the Activity (MCF7 [20]) was 5.47%. The inhibition (MCF7 [21]) was “Dose-Dependent Effect”, the inhibition (MCF7 [22]) was “Active” and the Activity (MCF7 [23]) was 0.71%. For the same compound, the IC50 (MDA-MB-231 [1]) was 9.16 µM, the Activity (MCF7 [24]) was 8.46% and the IC50 (MIA PaCa-2) was 0.39 µM. For the same compound, the viability at 2.5 µM (MCF7 [25]) was 75.3%, the Activity (MCF7 [26]) was 4.7% and the IC50 (MCF7 [2]) was 3.79 µM. It also gave an Activity (MCF7 [27]) of 1.3% and an IC50 (HCT-116) of 0.67 µM.
For `CN(CCOS(C)(=O)=O)S(=O)(=O)c1ccc(-n2ncc(Cl)c(Cl)c2=O)cc1`, the IC50 (A549) was 1.96 µM, the IC50 (KB) was 0.38 µM and the IC50 at 2 days [3] was 4.24 µM. It also gave an IC50 (NCI-H460) of 0.66 µM, an IC50 (4T1) of 2.1 µM and an IC50 (U-87 MG) of 0.32 µM. The IC50 (MDA-MB-231 [1]) was 16 µM, the IC50 (MIA PaCa-2) was 0.39 µM and the IC50 (MCF7 [2]) was 5.18 µM. For the same compound, the IC50 (HCT-116) was 0.73 µM.
For `COCC(C)NS(=O)(=O)c1ccc(-n2ncc(NCCCCCNC(=O)CCCC[C@@H]3SC[C@@H]4NC(=O)N[C@@H]43)c(Cl)c2=O)cc1` (stereo partly specified), the IC50 (KB) was greater than 50 µM and the IC50 (MIA PaCa-2) was greater than 50 µM.
For `CCN(CCOCCNC(=O)OC(C)(C)C)S(=O)(=O)c1ccc(-n2ncc(Cl)c(Cl)c2=O)cc1`, the IC50 (4T1) was greater than 10 µM, the IC50 (MDA-MB-231 [1]) was 27.2 µM and the IC50 (MCF7 [2]) was greater than 20 µM.
Work on `CC(CO)NS(=O)(=O)c1ccc(-n2ncc(Cl)c(Cl)c2=O)cc1` (stereo unspecified) yielded an IC50 (A549) of 2.07 µM, an IC50 (KB) of 0.5 µM and an IC50 at 2 days [3] of 4.66 µM. For the same compound, the IC50 (NCI-H460) was 1.02 µM, the IC50 (4T1) was 1.82 µM and the IC50 (U-87 MG) was 0.58 µM. The IC50 (MDA-MB-231 [1]) was 7.57 µM, the IC50 (MIA PaCa-2) was 0.44 µM and the IC50 (MCF7 [2]) was 4.45 µM. For the same compound, the IC50 (HCT-116) was 0.87 µM.
Compound `CN(CCN(C)S(=O)(=O)c1ccc(-n2ncc(Cl)c(Cl)c2=O)cc1)S(=O)(=O)c1ccc(-n2ncc(Cl)c(Cl)c2=O)cc1` has an IC50 (4T1) greater than 10 µM, an IC50 (MDA-MB-231 [1]) greater than 50 µM and an IC50 (MCF7 [2]) greater than 20 µM.
